# According to patent US6949571B2, “1,2-dihydropyridine compounds, process for preparation of the same and use thereof” (Eisai Co., Ltd., priority 2000, dated 2005):
# Counter-ions that a name gives are not always drawn. Like-named read-outs stand apart in the source and are kept apart here.
# System: AMPA receptor
# [1] = Table 1, primary culture of rat embryo cerebral cortex nerve cells, 2 μM AMPA, 1 μM MK-801
# [2] = Table 2, suppression of AMPA-induced calcium influx into nerve cells
# [3] = Table 3, primary culture of rat embryo cerebral cortex nerve cells, 2 μM AMPA, 1 μM MK-801
# 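Further: primary rat embryonic cortical neurons grown on an astrocyte layer in 96-well plates, used after at least 8 to 10 days in culture, Fura2-AM fluorescence ratio at 340/380 nm excitation.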
# Procedure: Cerebral cortex was cut out from the brain of rat of gestational 18 days and treated with trypsin and DNase to disperse the cells. The cells were flown by MEM containing 10% of serum, sown in a culture bottle and astrocytes were proliferated. The astrocytes were re-dispersed by trypsin and sown in a 96-well plate. After incubation for one week, it was confirmed that the astrocytes covered all over the bottom and then the nerve cells of cerebral cortex which was dispersed by the above method were sown thereupon. After incubation for 24 hours, the medium was changed, the incubation was carried out for one week and, after that, the medium was changed to that containing 1 μM of MK-801. Nerve cells which were incubated for not shorter than 8 to 10 days were used.
# Calcium influx into the cells was measured using Fura2-AM which was a calcium-sensitive fluorescent dye. It was treated in a medium containing Fura2-AM for 1 hour, incorporated into the cells, exchanged to a Tyrode solution containing 1 μM MK-801 and stimulation was carried out using 2 μM AMPA. Change in the amount of calcium flown into the cells were measured as the change in the fluorescent intensity at the exciting wave length of 340/380 nm.
SMILES,IC50 [1] [nM],IC50 [2] [nM],other results
"N#Cc1ccccc1-c1cc(-c2ccncc2)cn(-c2ccccc2)c1=O [Example 35, 3-(2-Cyanophenyl)-5-(4-pyridyl)-1-phenyl-1,2-dihydropyridin-2-one]",3100,–,–
"N#Cc1ccccc1-c1cc(-c2cccnn2)cn(-c2ccccc2)c1=O [Example 204, 3-(2-Cyanophenyl)-1-phenyl-5-(3-pyridazyl)-1,2-dihydropyridin-2-one]",–,1600,–
"N#Cc1ccccc1-c1cc(-c2ccccn2)cn(-c2cccc(OCCN3CCCC3)c2)c1=O [Example 241, 3-(2-Cyanophenyl)-1-[3-(pyrrolidinoethoxy)phenyl]-5-(2-pyridyl)-1,2-dihydropyridin-2-one]",–,400,–
"COc1ccncc1-c1cc(-c2ccccn2)cn(-c2ccccc2)c1=O [Example 77, 3-(4-Methoxy-3-pyridyl)-5-(2-pyridyl)-1-phenyl-1,2-dihydropyridin-2-one]",20,–,–
"N#Cc1ccccc1-c1cc(NC(=O)c2ccccn2)cn(-c2ccccc2)c1=O [Example 309, 3-(2-Cyanophenyl)-1-phenyl-5-(2-pyridincarbonyl)amino-1,2-dihydropyridin-2-one]",–,–,IC50 [3]: 4100 nM
"O=c1c(-c2ccsc2-c2cnco2)cc(-c2ccccn2)cn1-c1ccccc1 [Example 393, 3-[2-(5-Oxazolyl)thiophen-3-yl]-1-phenyl-5-(2-pyridyl)-1,2-dihydropyridin-2-one]",–,–,IC50 [3]: 300 nM
"CC(=O)N1CCN(Cc2cccc(-n3cc(-c4ccccn4)cc(-c4ccccc4C#N)c3=O)c2)CC1 [Example 251, 1-[3-[(4-Acetylpiperazino)methyl]phenyl]-3-(2-cyanophenyl)-5-(2-pyridyl)-1,2-dihydropyridin-2-one]",–,900,–
"N#Cc1ccccc1-c1cc(-c2ccccn2)cn(-c2ccc3nc(N)sc3c2)c1=O [Example 166, 1-(2-Aminobenzothiazol-6-yl)-3-(2-cyanophenyl)-5-(2-pyridyl)-1,2-dihydropyridin-2-one]",–,300,–
"O=c1c(-c2ccc3ccccc3c2)cc(-c2ccccn2)cn1-c1ccccc1 [Example 284, 3-(2-Naphthyl)-5-(2-pyridyl)-1-phenyl-1,2-dihydropyridin-2-one]",–,2800,–
"O=c1c(-c2nc3cnccc3[nH]2)cc(-c2ccccn2)cn1-c1ccccc1 [Example 367, 3-(1H-Imidazo[4,5-c]pyridin-2-yl)-5-(2-pyridyl)-1-phenyl-1,2-dihydropyridin-2-one]",–,–,IC50 [3]: 600 nM
"CC(=O)Nc1ccccc1-c1cc(-c2ccccn2)cn(-c2ccccc2)c1=O [Example 230, 3-[2-(Acetylamino)phenyl]-1-phenyl-5-(2-pyridyl)-1,2-dihydropyridin-2-one]",–,4000,–
"CN(C)CCOc1cccc(-c2cc(-c3ccccn3)cn(-c3ccccc3)c2=O)c1 [Example 247, 3-[3-(Dimethylaminoethoxy)phenyl]-1-phenyl-5-(2-pyridyl)-1,2-dihydropyridin-2-one]",–,3600,–
"N#Cc1ccccc1-c1cc(-c2nccs2)cn(-c2ccccc2)c1=O [Example 201, 3-(2-Cyanophenyl)-1-phenyl-5-(2-thiazoyl)-1,2-dihydropyridin-2-one]",–,200,–
"O=Cc1sccc1-c1cc(-c2ccccn2)cn(-c2cccnc2)c1=O [Example 130, 3-(2-Formylthiophen-3-yl)-5-(2-pyridyl)-1-(3-pyridyl)-1,2-dihydropyridin-2-one]",900,–,–
"N#Cc1ccccc1-c1cc(-c2ccccn2)cn(-c2cccc(CO)c2)c1=O [Example 21, 3-(2-Cyanophenyl)-5-(2-pyridyl)-1-(3-hydroxymethylphenyl)-1,2-dihydropyridin-2-one]",30,–,–
"N#Cc1ccccc1-c1cc(-c2ccccn2)cn(-c2ccc(OCCO)nc2)c1=O [Example 119, 3-(2-Cyanophenyl)-5-(2-pyridyl)-1-(2-hydroxyethoxypyridin-5-yl)-1,2-dihydropyridin-2-one]",1700,–,–
"N#Cc1ccccc1-c1cc(-c2ccccn2)cn(-c2ccccn2)c1=O [Example 159, 3-(2-Cyanophenyl)-1-(2-pyridyl)-5-(2-pyridyl)-1,2-dihydropyridin-2-one]",–,1600,–
"N#Cc1ccccc1-c1cc(-c2ccccn2)cn(CC2CCN(C(=O)OCc3ccccc3)CC2)c1=O [Example 319, 1-[1-(Benzyloxycarbonyl)piperidin-4-yl]methyl-3-(2-cyanophenyl)-5-(2-pyridyl)-1,2-dihydropyridin-2-one]",–,–,IC50 [3]: 2000 nM
"O=c1c(-c2ccccc2F)cc(-c2ccccn2)cn1-c1ccccc1 [Example 71, 3-(2-Fluorophenyl)-5-(2-pyridyl)-1-phenyl-1,2-dihydropyridin-2-one]",50,–,–
"N#Cc1ccccc1-c1cc(-c2ccccn2)cn(-c2ccc(C(F)(F)F)cc2)c1=O [Example 108, 3-(2-Cyanophenyl)-5-(2-pyridyl)-1-(4-trifluoromethylphenyl)-1,2-dihydropyridin-2-one]",30,–,–
"O=c1c(-c2nc3cccc4c3n2CCC4)cc(-c2ccccn2)cn1-c1ccccc1 [Example 359, 3-(5,6-Dihydro-4H-imidazo[4,5,1-i,j]quinolin-2-yl)-5-(2-pyridyl)-1-phenyl-1,2-dihydropyridin-2-one]",–,–,IC50 [3]: 2300 nM
"CS(=O)(=O)Nc1cccc(-n2cc(-c3ccccn3)cc(-c3ccccc3C#N)c2=O)c1 [Example 10, 3-(2-Cyanophenyl)-5-(2-pyridyl)-1-(3-methylsulfonylaminophenyl)-1,2-dihydropyridin-2-one]",50,–,–
"N#Cc1ccccc1-c1cc(-c2ccccn2)cn(-c2ccc(N3CCN(Cc4ccccc4)CC3)nc2)c1=O [Example 113, 3-(2-Cyanophenyl)-5-(2-pyridyl)-1-[2-(4-benzylpiperazin-1-yl)-pyridin-5-yl]-1,2-dihydropyridin-2-one]",1200,–,–
"N#Cc1ccccc1-c1cc(-c2ccccc2[N+](=O)[O-])cn(-c2ccccc2)c1=O [Example 1, 3-(2-Cyanophenyl)-5-(2-nitrophenyl)-1-phenyl-1,2-dihydropyridin-2-one]",800,–,–
"N#Cc1ccccc1-c1cc(-c2ccccn2)cn(-c2ccc3ccccc3c2)c1=O [Example 290, 3-(2-Cyanophenyl)-5-(2-pyridyl)-1-(2-naphthyl)-1,2-dihydropyridin-2-one]",–,200,–
"O=c1c(Nc2ccccc2)cc(-c2ccccn2)cn1-c1ccccc1 [Example 174, 3-Phenylamino-5-(2-pyridyl)-1-phenyl-1,2-dihydropyridin-2-one]",–,3300,–
"CN(C)Cc1ccccc1-c1cc(-c2ccccn2)cn(-c2ccccc2)c1=O [Example 154, 3-(2-Dimethylaminomethylphenyl)-5-(2-pyridyl)-1-phenyl-1,2-dihydropyridin-2-one dihydrochloride]",–,5000,–
"N#Cc1ccccc1-c1cc(-c2ccc([N+](=O)[O-])cn2)cn(-c2ccccc2)c1=O [Example 299, 3-(2-Cyanophenyl)-5-(5-nitropyridin-2-yl)-1-phenyl-1,2-dihydropyridin-2-one]",–,4400,–
"N#Cc1ccc(-n2cc(-c3ccccn3)cc(-c3ccccc3C#N)c2=O)cc1 [Example 93, 3-(2-Cyanophenyl)-5-(2-pyridyl)-1-(4-cyanophenyl)-1,2-dihydropyridin-2-one]",1900,–,–
"N#Cc1ccccc1-c1cc(-c2ccccn2)cn(-c2cccc(OC3CCN(S(=O)(=O)c4ccccc4)CC3)c2)c1=O [Example 337, 1-{3-[1-(Benzenesulfonyl)piperidin-4-yl-oxy]phenyl}-3-(2-cyanophenyl)-5-(2-pyridyl)-1,2-dihydropyridin-2-one]",–,–,IC50 [3]: 700 nM
